Source: the NIST ThermoML archive (doi:10.1016/j.fluid.2007.08.006)
± gives the expanded uncertainty stated by the source.

Settings: 101.33 kPa, Liquid; for viscosity: Capillary tube (Ostwald / Ubbelohde) method; for mass density: Pycnometric method; for speed of sound: Sing-around technique in a fixed-path interferometer

SMILES: CCC(C)=O [butanone]
- viscosity (303.15 K): 0.352 ± 0.009 mPa·s
- mass density (303.15 K): 802.5 ± 3.7 kg/m3
- speed of sound (303.15 K): 1168.6 ± 6.9 m/s
- viscosity (308.15 K): 0.334 ± 0.009 mPa·s
- mass density (308.15 K): 800.1 ± 3.6 kg/m3
- speed of sound (308.15 K): 1157.2 ± 6.9 m/s
- viscosity (313.15 K): 0.315 ± 0.008 mPa·s
- mass density (313.15 K): 800.3 ± 3.7 kg/m3
- speed of sound (313.15 K): 1130.4 ± 6.8 m/s

SMILES: CN(C)C=O [dimethylformamide]
- viscosity (303.15 K): 0.715 ± 0.018 mPa·s
- mass density (303.15 K): 927.2 ± 4.9 kg/m3
- speed of sound (303.15 K): 1404.6 ± 7.5 m/s
- viscosity (308.15 K): 0.693 ± 0.018 mPa·s
- mass density (308.15 K): 919.7 ± 4.8 kg/m3
- speed of sound (308.15 K): 1400.8 ± 7.5 m/s
- viscosity (313.15 K): 0.677 ± 0.018 mPa·s
- mass density (313.15 K): 916.4 ± 4.8 kg/m3
- speed of sound (313.15 K): 1420.8 ± 7.6 m/s

SMILES: CCO [ethanol]
- mass density (303.15 K): 772.4 ± 3.4 kg/m3
- speed of sound (303.15 K): 1135.4 ± 6.8 m/s
- viscosity (308.15 K): 0.658 ± 0.017 mPa·s
- mass density (308.15 K): 771.6 ± 3.4 kg/m3
- speed of sound (308.15 K): 1133.2 ± 6.8 m/s
- viscosity (313.15 K): 0.617 ± 0.016 mPa·s
- mass density (313.15 K): 771.2 ± 3.4 kg/m3
- speed of sound (313.15 K): 1130.8 ± 6.8 m/s
